Measurements published in patent US20060148730A1, “Method of treating tuberculosis” (priority 2003, published 2006).
Values after ≈ are worked out from the molar mass of the structure shown.

Tested on: M. tuberculosis H37Rv
Assay: MIC vs. M. tuberculosis H37Rv, microplate Alamar Blue assay (MABA)
Format: cell-based
Conditions: Mycobacterium tuberculosis, H37RV, Table 4; read-out: MIC

SMILES | MIC
CC[C@H]1OC(=O)[C@H](C)[C@@H](OC2CC(C)(OC)C(O)C(C)O2)[C@H](C)[C@@H](OC2OC(C)CC(N(C)C)C2OC(=O)Nc2ccccc2)[C@](C)(OC)C[C@@H](C)C(=O)[C@H](C)[C@@H](O)[C@]1(C)O (stereo partly drawn) [Compound 3ZZ19] | 12 µM (≈ 10.4 µg/mL)
CC[C@H]1OC(=O)[C@H](C)C(O[C@H]2CC(C)(OC)[C@@H](OC(=O)Nc3ccccc3)[C@H](C)O2)[C@H](C)[C@@H](O[C@@H]2O[C@H](C)C[C@H](N(C)C)[C@H]2O)[C@](C)(OC)C[C@@H](C)C(=O)[C@H](C)[C@@H](O)[C@]1(C)O (stereo partly drawn) [Compound 1SH63] | 16 µM (≈ 13.9 µg/mL)
CC[C@H]1OC(=O)[C@H](C)[C@@H](OC2CC(C)(OC)C(OC(=O)c3ccccc3)C(C)O2)[C@H](C)[C@@H](OC2OC(C)CC(N(C)C)C2OC(=O)c2ccccc2)[C@](C)(OC)C[C@@H](C)C(=O)[C@H](C)[C@H]2N(NCCCc3ccnc4ccccc34)C(=O)O[C@]12C (stereo partly drawn) [Compound 1SH53b] | 11 µM (≈ 12.8 µg/mL)
CC[C@H]1OC(=O)[C@H](C)[C@@H](O[C@H]2CC(C)(OC)[C@@H](O)[C@H](C)O2)[C@H](C)[C@@H](O[C@@H]2O[C@H](C)C[C@H](N(C)C)[C@H]2O)[C@](C)(OC)C[C@@H](C)C(=O)[C@H](C)[C@H]2N(CC/C=C\c3ccccc3)C(=O)O[C@]12C (stereo partly drawn) [ITR0020] | 6.6 µM (≈ 5.96 µg/mL)

Same assay, conditions: Table 1a, 11,12-carbamate derivatives; anti-TB activity; read-out: MIC

SMILES | MIC
CC[C@H]1OC(=O)[C@H](C)C(=O)[C@H](C)[C@@H](O[C@@H]2O[C@H](C)C[C@H](N(C)C)[C@H]2O)[C@](C)(OC)C[C@@H](C)C(=O)[C@H](C)[C@H]2N(CCCCn3ccnc3)C(=O)O[C@]12C [RU61205] | 112 µM (≈ 82.3 µg/mL)

Same assay, conditions: Table 2a, 11,12-diols; anti-TB activity; read-out: MIC

SMILES | MIC
CC[C@H]1OC(=O)[C@H](C)C(=O)[C@H](C)[C@@H](O[C@@H]2O[C@H](C)C[C@H](N(C)C)[C@H]2O)[C@](C)(OC)C[C@@H](C)C(=NOC2CCCN(C/C=C/c3ccc(-c4ccccc4)cc3)C2)[C@H](C)[C@@H](O)[C@]1(C)O (stereo partly drawn) [RU61804] | 0.5 µM (≈ 0.439 µg/mL)

Same assay, conditions: Table 3; parallel-synthesis carbazate library products, SPE purified; read-out: MIC

SMILES | MIC
CC[C@H]1OC(=O)[C@H](C)[C@@H](O[C@H]2CC(C)(OC)[C@@H](O)[C@H](C)O2)[C@H](C)[C@@H](O[C@@H]2O[C@H](C)C[C@H](N(C)C)[C@H]2O)[C@](C)(OC)C[C@@H](C)C(=O)[C@H](C)[C@H]2N(NCc3c(C(F)(F)F)nn(C)c3Cl)C(=O)O[C@]12C (stereo partly drawn) [D3′] | 20 µM (≈ 19.7 µg/mL)
CC[C@H]1OC(=O)[C@H](C)[C@@H](O[C@H]2CC(C)(OC)[C@@H](O)[C@H](C)O2)[C@H](C)[C@@H](O[C@@H]2O[C@H](C)C[C@H](N(C)C)[C@H]2O)[C@](C)(OC)C[C@@H](C)C(=O)[C@H](C)[C@H]2N(NCc3cccn3-c3ccc(C(F)(F)F)cc3)C(=O)O[C@]12C (stereo partly drawn) [F1′] | 17.6 µM (≈ 17.8 µg/mL)
CC[C@H]1OC(=O)[C@H](C)[C@@H](O[C@H]2CC(C)(OC)[C@@H](O)[C@H](C)O2)[C@H](C)[C@@H](O[C@@H]2O[C@H](C)C[C@H](N(C)C)[C@H]2O)[C@](C)(OC)C[C@@H](C)C(=O)[C@H](C)[C@H]2N(NCc3cn(S(=O)(=O)c4ccc(C)cc4)c4ccccc34)C(=O)O[C@]12C (stereo partly drawn) [C4′] | 11 µM (≈ 11.8 µg/mL)
CC[C@H]1OC(=O)[C@H](C)[C@@H](O[C@H]2CC(C)(OC)[C@@H](O)[C@H](C)O2)[C@H](C)[C@@H](O[C@@H]2O[C@H](C)C[C@H](N(C)C)[C@H]2O)[C@](C)(OC)C[C@@H](C)C(=O)[C@H](C)[C@H]2N(/N=C/c3cnc(-c4ccccc4)nc3C)C(=O)O[C@]12C (stereo partly drawn) [E6′] | 5 µM (≈ 4.84 µg/mL)
CC[C@H]1OC(=O)[C@H](C)[C@@H](O[C@H]2CC(C)(OC)[C@@H](O)[C@H](C)O2)[C@H](C)[C@@H](O[C@@H]2O[C@H](C)C[C@H](N(C)C)[C@H]2O)[C@](C)(OC)C[C@@H](C)C(=O)[C@H](C)[C@H]2N(NCc3ccc([N+](=O)[O-])o3)C(=O)O[C@]12C (stereo partly drawn) [A8′] | >9 µM
CC[C@H]1OC(=O)[C@H](C)[C@@H](O[C@H]2CC(C)(OC)[C@@H](O)[C@H](C)O2)[C@H](C)[C@@H](O[C@@H]2O[C@H](C)C[C@H](N(C)C)[C@H]2O)[C@](C)(OC)C[C@@H](C)C(=O)[C@H](C)[C@H]2N(NCc3sc(C)nc3C)C(=O)O[C@]12C (stereo partly drawn) [F5′] | >19 µM
CC[C@H]1OC(=O)[C@H](C)[C@@H](O[C@H]2CC(C)(OC)[C@@H](O)[C@H](C)O2)[C@H](C)[C@@H](O[C@@H]2O[C@H](C)C[C@H](N(C)C)[C@H]2O)[C@](C)(OC)C[C@@H](C)C(=O)[C@H](C)[C@H]2N(NC/C=C/c3cc(OC)c(O)c(OC)c3)C(=O)O[C@]12C (stereo partly drawn) [A6′] | 10.2 µM (≈ 10 µg/mL)
CC[C@H]1OC(=O)[C@H](C)[C@@H](O[C@H]2CC(C)(OC)[C@@H](O)[C@H](C)O2)[C@H](C)[C@@H](O[C@@H]2O[C@H](C)C[C@H](N(C)C)[C@H]2O)[C@](C)(OC)C[C@@H](C)C(=O)[C@H](C)[C@H]2N(NCc3nccn3C)C(=O)O[C@]12C (stereo partly drawn) [B3′] | >18 µM
CC[C@H]1OC(=O)[C@H](C)[C@@H](O[C@H]2CC(C)(OC)[C@@H](O)[C@H](C)O2)[C@H](C)[C@@H](O[C@@H]2O[C@H](C)C[C@H](N(C)C)[C@H]2O)[C@](C)(OC)C[C@@H](C)C(=O)[C@H](C)[C@H]2N(NCC3CSN=N3)C(=O)O[C@]12C (stereo partly drawn) [G10′] | >16 µM
CC[C@H]1OC(=O)[C@H](C)[C@@H](O[C@H]2CC(C)(OC)[C@@H](O)[C@H](C)O2)[C@H](C)[C@@H](O[C@@H]2O[C@H](C)C[C@H](N(C)C)[C@H]2O)[C@](C)(OC)C[C@@H](C)C(=O)[C@H](C)[C@H]2N(NCc3cccnc3NC(=O)C(C)(C)C)C(=O)O[C@]12C (stereo partly drawn) [E4′] | >27 µM
CC[C@H]1OC(=O)[C@H](C)[C@@H](O[C@H]2CC(C)(OC)[C@@H](O)[C@H](C)O2)[C@H](C)[C@@H](O[C@@H]2O[C@H](C)C[C@H](N(C)C)[C@H]2O)[C@](C)(OC)C[C@@H](C)C(=O)[C@H](C)[C@H]2N(NCc3cccn3-c3ccc(Cl)cc3)C(=O)O[C@]12C (stereo partly drawn) [E12′] | 3.4 µM (≈ 3.32 µg/mL)
CC[C@H]1OC(=O)[C@H](C)[C@@H](O[C@H]2CC(C)(OC)[C@@H](O)[C@H](C)O2)[C@H](C)[C@@H](O[C@@H]2O[C@H](C)C[C@H](N(C)C)[C@H]2O)[C@](C)(OC)C[C@@H](C)C(=O)[C@H](C)[C@H]2N(NCc3cccnc3)C(=O)O[C@]12C (stereo partly drawn) [D9′] | >15 µM
CC[C@H]1OC(=O)[C@H](C)[C@@H](O[C@H]2CC(C)(OC)[C@@H](O)[C@H](C)O2)[C@H](C)[C@@H](O[C@@H]2O[C@H](C)C[C@H](N(C)C)[C@H]2O)[C@](C)(OC)C[C@@H](C)C(=O)[C@H](C)[C@H]2N(NCc3cn(Cc4ccccc4)c4ccccc34)C(=O)O[C@]12C (stereo partly drawn) [C2′] | 7 µM (≈ 7.05 µg/mL)
CC[C@H]1OC(=O)[C@H](C)[C@@H](O[C@H]2CC(C)(OC)[C@@H](O)[C@H](C)O2)[C@H](C)[C@@H](O[C@@H]2O[C@H](C)C[C@H](N(C)C)[C@H]2O)[C@](C)(OC)C[C@@H](C)C(=O)[C@H](C)[C@H]2N(NCc3cccn3CCC#N)C(=O)O[C@]12C (stereo partly drawn) [E10′] | 20 µM (≈ 18.4 µg/mL)
CCCCc1nc(CNN2C(=O)O[C@]3(C)[C@@H](CC)OC(=O)[C@H](C)[C@@H](O[C@H]4CC(C)(OC)[C@@H](O)[C@H](C)O4)[C@H](C)[C@@H](O[C@@H]4O[C@H](C)C[C@H](N(C)C)[C@H]4O)[C@](C)(OC)C[C@@H](C)C(=O)[C@H](C)[C@@H]23)c(Cl)[nH]1 (stereo partly drawn) [B7′] | >19 µM
CC[C@H]1OC(=O)[C@H](C)[C@@H](O[C@H]2CC(C)(OC)[C@@H](O)[C@H](C)O2)[C@H](C)[C@@H](O[C@@H]2O[C@H](C)C[C@H](N(C)C)[C@H]2O)[C@](C)(OC)C[C@@H](C)C(=O)[C@H](C)[C@H]2N(NCc3c(-c4ccccc4)noc3C)C(=O)O[C@]12C (stereo partly drawn) [C10′] | 12 µM (≈ 11.5 µg/mL)
CC[C@H]1OC(=O)[C@H](C)[C@@H](O[C@H]2CC(C)(OC)[C@@H](O)[C@H](C)O2)[C@H](C)[C@@H](O[C@@H]2O[C@H](C)C[C@H](N(C)C)[C@H]2O)[C@](C)(OC)C[C@@H](C)C(=O)[C@H](C)[C@H]2N(NCc3c(Cl)cccc3Cl)C(=O)O[C@]12C (stereo partly drawn) [H1′] | 11 µM (≈ 10.4 µg/mL)
CC[C@H]1OC(=O)[C@H](C)[C@@H](O[C@H]2CC(C)(OC)[C@@H](O)[C@H](C)O2)[C@H](C)[C@@H](O[C@@H]2O[C@H](C)C[C@H](N(C)C)[C@H]2O)[C@](C)(OC)C[C@@H](C)C(=O)[C@H](C)[C@H]2N(NCc3ccoc3)C(=O)O[C@]12C (stereo partly drawn) [A10′] | >7 µM
CC[C@H]1OC(=O)[C@H](C)[C@@H](O[C@H]2CC(C)(OC)[C@@H](O)[C@H](C)O2)[C@H](C)[C@@H](O[C@@H]2O[C@H](C)C[C@H](N(C)C)[C@H]2O)[C@](C)(OC)C[C@@H](C)C(=O)[C@H](C)[C@H]2N(NCc3c[nH]c(=O)[nH]c3=O)C(=O)O[C@]12C (stereo partly drawn) [E8′] | >20 µM

Same assay, conditions: Table 4; read-out: MIC

SMILES | MIC
CCC1OC(=O)C(C)C(OC2CC(C)(OC)C(O)C(C)O2)C(C)C(OC2OC(C)CC(N(C)C)C2O)C(C)(OC)CC(C)C(=NOCCCCF)C(C)C(O)C1(C)O (stereo not drawn) [Compound 1DP79] | 3.5 µM (≈ 2.93 µg/mL)
CCC1OC(=O)C(C)C(OC2CC(C)(OC)C(O)C(C)O2)C(C)C(OC2OC(C)CC(N(C)C)C2O)C(C)(OC)CC(C)C(=NOC2CCCN(C(=O)OCc3ccccc3)C2)C(C)C(O)C1(C)O (stereo not drawn) [ITR0011] | 6.0 µM (≈ 5.88 µg/mL)

Same assay, conditions: Table 5; read-out: MIC

SMILES | MIC
CC[C@H]1OC(=O)[C@H](C)[C@@H](O)[C@H](C)[C@@H](O[C@@H]2O[C@H](C)C[C@H](N(C)C)[C@H]2O)[C@](C)(OC)C[C@@H](C)C(=NOCCCc2ccccc2)[C@H](C)[C@@H](O)[C@]1(C)O [Compound 2GY15] | 6.3 µM (≈ 4.55 µg/mL)
CCCCCCNC(=O)OC1C(OC2C(C)C(OC3CC(C)(OC)C(O)C(C)O3)C(C)C(=O)OC(CC)C(C)(O)C(O)C(C)C(=O)C(C)CC2(C)OC)OC(C)CC1N(C)C (stereo not drawn) [Compound 1SH88] | 15 µM (≈ 13.1 µg/mL)
CCC1OC(=O)C(C)C(OC2CC(C)(OC)C(O)C(C)O2)C(C)C(OC2OC(C)CC(N(C)C)C2O)C(C)(OC)CC(C)C(=NOCC(=O)c2ccc(-c3ccccc3)cc2)C(C)C(O)C1(C)O (stereo not drawn) [Compound 1GY53] | 6.8 µM (≈ 6.51 µg/mL)
CCC1OC(=O)C(C)C(OC2CC(C)(OC)C(O)C(C)O2)C(C)C(OC2OC(C)CC(N(C)C)C2O)C(C)(OC)CC(C)C(=NOC(C)(C)CC(C)=O)C(C)C(O)C1(C)O (stereo not drawn) [Compound 1GY27] | 31 µM (≈ 26.7 µg/mL)
CCC1OC(=O)C(C)C(OC2CC(C)(OC)C(O)C(C)O2)C(C)C(OC2OC(C)CC(N(C)C)C2O)C(C)(O)CC(C)C(=NN=Cc2ccc(C(F)(F)F)cc2)C(C)C(O)C1(C)O (stereo not drawn) [Compound 1OK95] | 27 µM (≈ 24.4 µg/mL)

Same assay, conditions: result in words

SMILES | anti-TB activity / MIC in words
CC[C@H]1OC(=O)[C@H](C)C(=O)[C@H](C)[C@@H](O[C@@H]2O[C@H](C)C[C@H](N(C)C)[C@H]2O)[C@](C)(OC)C[C@@H](C)C(=NOC2CCCN(C/C=C/c3ccc(-c4ccccc4)cc3)C2)[C@H](C)[C@@H](O)[C@]1(C)O (stereo partly drawn) [RU61804] | most potent of the tested 9-oxime compounds
